Experimental data reported in BindingDB's records for patent US11161864 (Venenum Biodesign, 2021).

Target: T1, Stimulator of interferon genes protein [154-378] (Mus musculus, UniProt Q3TBT3)
T1 construct: 154-378
T1 sequence (Q3TBT3 whole entry): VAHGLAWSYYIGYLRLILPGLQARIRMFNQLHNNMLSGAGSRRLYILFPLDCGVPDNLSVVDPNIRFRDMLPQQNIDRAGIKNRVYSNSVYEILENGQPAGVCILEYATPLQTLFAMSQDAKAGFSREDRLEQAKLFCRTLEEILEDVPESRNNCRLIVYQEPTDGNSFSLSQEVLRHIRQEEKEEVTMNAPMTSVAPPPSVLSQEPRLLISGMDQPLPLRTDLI
Experiment: Binding Assay

Structure (SMILES): NC(=O)c1cnc2c(c1)nc1n2CCOP(=O)(S)OC[C@H]2O[C@@H](n3cnc4c(=O)[nH]c(N)nc43)[C@H](OP(=O)(S)OC1)[C@@H]2F (stereo partly specified) [US11161864, Example 37A]
- IC50: < 1 µM
